Drawing on ChEMBL document CHEMBL3232715, “Recent progress in the identification of BRAF inhibitors as anti-cancer agents” (Eur J Med Chem, 2014), this text covers IC50 for four compounds.

Assay [1] concerns the target T1, Serine/threonine-protein kinase B-raf (Homo sapiens, UniProt P15056). Description: Inhibition of BRAF (unknown origin).
In assay [2] the target is T2, Serine/threonine-protein kinase B-raf (Homo sapiens, UniProt P15056, V600E). Kind of assay: Inhibition of BRAF V600E mutant-mediated MEK phosphorylation in human HT-29 cells by Western blotting analysis. In kind it is cell-based.
Assay [3] has as its target T1, Serine/threonine-protein kinase B-raf. Description: Inhibition of N-terminal 6X-His tagged human wild-type BRAF by ELISA. On the technique in general: ELISA stands for enzyme-linked immunosorbent assay.
Assay [4] concerns the target T2, Serine/threonine-protein kinase B-raf. Kind of assay: Inhibition of N-terminal 6X-His tagged human BRAF V600E mutant (433 to 726) by ELISA.
In assay [5] the test system is A-375. Description: Antiproliferative activity against human A375 cells. It counts as functional, cell-based.
The target of assay [6] is T2, Serine/threonine-protein kinase B-raf. Description: Inhibition of BRAF V600E mutant (unknown origin).
Assay [7] in a line: Antiproliferative activity against human WM266.4 cells. In kind it is functional, cell-based. Particulars: WM 266-4.
The target in assay [8] is T1, Serine/threonine-protein kinase B-raf. Description: Inhibition of BRAF (unknown origin)-mediated ERK phosphorylation.

T2 sequence (P15056 2-766 V600E limits assumed): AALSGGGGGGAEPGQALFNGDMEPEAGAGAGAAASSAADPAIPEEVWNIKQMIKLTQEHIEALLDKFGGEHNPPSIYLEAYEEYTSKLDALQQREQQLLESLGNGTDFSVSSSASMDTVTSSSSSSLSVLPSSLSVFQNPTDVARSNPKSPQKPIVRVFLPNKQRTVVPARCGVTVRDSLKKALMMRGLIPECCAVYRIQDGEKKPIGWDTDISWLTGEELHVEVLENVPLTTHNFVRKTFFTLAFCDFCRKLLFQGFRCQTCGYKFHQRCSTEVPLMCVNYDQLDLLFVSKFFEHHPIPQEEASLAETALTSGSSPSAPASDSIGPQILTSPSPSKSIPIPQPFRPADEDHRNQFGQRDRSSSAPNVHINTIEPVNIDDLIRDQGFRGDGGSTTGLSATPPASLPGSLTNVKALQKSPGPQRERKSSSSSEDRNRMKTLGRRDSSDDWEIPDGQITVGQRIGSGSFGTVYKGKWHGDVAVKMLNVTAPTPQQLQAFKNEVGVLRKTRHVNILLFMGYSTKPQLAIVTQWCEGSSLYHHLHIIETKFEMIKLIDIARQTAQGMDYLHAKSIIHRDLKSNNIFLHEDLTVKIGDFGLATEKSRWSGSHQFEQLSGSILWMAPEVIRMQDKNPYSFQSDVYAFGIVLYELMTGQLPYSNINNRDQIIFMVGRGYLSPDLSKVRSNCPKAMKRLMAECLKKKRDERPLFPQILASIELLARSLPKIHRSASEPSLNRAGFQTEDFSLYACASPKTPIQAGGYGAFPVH
T1 sequence (P15056 whole entry): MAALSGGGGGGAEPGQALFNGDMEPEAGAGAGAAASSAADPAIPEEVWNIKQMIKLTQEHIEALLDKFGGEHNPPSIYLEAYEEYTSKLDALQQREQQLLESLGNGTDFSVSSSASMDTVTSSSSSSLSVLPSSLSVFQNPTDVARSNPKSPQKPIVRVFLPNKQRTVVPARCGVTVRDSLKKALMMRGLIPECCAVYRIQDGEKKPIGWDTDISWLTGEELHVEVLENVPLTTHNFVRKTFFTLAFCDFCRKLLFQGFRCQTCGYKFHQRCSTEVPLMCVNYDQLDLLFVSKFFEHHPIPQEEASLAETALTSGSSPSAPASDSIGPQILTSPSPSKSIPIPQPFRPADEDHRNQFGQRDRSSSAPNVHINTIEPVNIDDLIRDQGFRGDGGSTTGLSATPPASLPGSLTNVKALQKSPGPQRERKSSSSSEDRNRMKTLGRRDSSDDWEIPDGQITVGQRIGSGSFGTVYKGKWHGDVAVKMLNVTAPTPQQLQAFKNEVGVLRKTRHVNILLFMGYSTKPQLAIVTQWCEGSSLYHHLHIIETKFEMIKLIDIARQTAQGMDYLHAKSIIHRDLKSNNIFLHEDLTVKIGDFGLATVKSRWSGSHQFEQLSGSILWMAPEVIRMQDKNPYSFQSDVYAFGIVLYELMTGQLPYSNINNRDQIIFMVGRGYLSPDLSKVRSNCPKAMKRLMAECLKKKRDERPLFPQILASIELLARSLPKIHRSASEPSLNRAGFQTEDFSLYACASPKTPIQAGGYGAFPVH

For the compound `O=C(Nc1cccc(Oc2ccc3nc(NC(=O)C4CCOCC4)cn3n2)c1)c1cccc(C(F)(F)F)c1`, the IC50 in assay [1] came to 43 nM; in assay [2], 3800 nM.
On to `O=C1NC(=S)NC(=O)C1=Cc1ccc(-c2ccc3c(c2)OCO3)o1`, for which the IC50 came out at 1150 nM in assay [3] and 300 nM in assay [4].
Take `O=C(Nc1ccccc1)N(Cc1ccc(Br)cc1O)c1cc(-c2ccccc2)[nH]n1`: the IC50 in assay [5] is 1320 nM; in assay [6] it was 190 nM; in assay [7], 1500 nM.
`O/N=C1\CCc2cc(-c3cn(C4CCNCC4)nc3-c3ccncc3)ccc21` gave an IC50 in assay [8] of 9 nM.

By IC50 is commonly meant the midpoint of a concentration-inhibition curve.
